Test results published in paper PMC8151276, “An Integrated Approach toward NanoBRET Tracers for Analysis of GPCR Ligand Engagement” (Molecules, 2021).

Target: T1, PTGER1 (Homo sapiens, UniProt P34995)
T1 construct: purchased Promega (in-house HiBiT-GPCR construct library, NanoBRET)
T1 sequence (P34995 1-402): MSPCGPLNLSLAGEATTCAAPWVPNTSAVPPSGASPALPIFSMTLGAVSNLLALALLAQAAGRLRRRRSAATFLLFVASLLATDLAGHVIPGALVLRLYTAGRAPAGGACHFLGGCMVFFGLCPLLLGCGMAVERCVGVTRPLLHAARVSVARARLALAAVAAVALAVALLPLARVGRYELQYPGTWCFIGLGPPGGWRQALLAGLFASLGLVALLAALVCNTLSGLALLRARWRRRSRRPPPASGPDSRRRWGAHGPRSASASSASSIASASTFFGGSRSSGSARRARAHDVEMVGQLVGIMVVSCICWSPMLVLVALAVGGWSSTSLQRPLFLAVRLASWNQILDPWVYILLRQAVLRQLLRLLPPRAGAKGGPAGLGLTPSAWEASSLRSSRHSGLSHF
Experiment: NanoBRET screen HiBiT-PTGER1 in HEK293
Type: binding
Description: Each tracer candidate was screened across the entire library of HiBiT-GPCR constructs using NanoBRET as the detection modality. As depicted in Figure 4A, the specificity of interactions was evaluated through decrease in BRET due to competitive displacement of a bound tracer by excess parental compound. Each tracer was analyzed for binding to each HiBiT-GPCR fusion in the absence and in the presence of competing parental compound. Briefly, HEK293 cells were transfected with HiBiT-GPCR constructs diluted into promoterless DNA to reduce expression and maximize translocation to the cell surface. Each tracer candidate was then screened at concentrations of 1 μM and 0.1 μM across cells expressing these fusions. Cells were treated for 1.5 h with tracer either alone or in the presence of 20 μM competing parental compound (i.e., control). BRET was measured upon addition of purified LgBiT and subsequent complementation with HiBiT genetically fused to a GPCR. The specificity of interactions was assessed through a decrease in BRET signal due to competitive displacement of the bound tracer. To further gauge the robustness of these interactions, the fold response over the control (i.e., BRETtracer/BRETcontrol) was calculated. We chose a 1.5-fold response, which translates to ≥7-fold signal over noise as the minimal threshold required to score an interaction as positive. […]. Below we highlight the screening results obtained for our exemplary fluorescent tracers based on Clozapine, Amitriptyline and AZD1283.
HiBiT-GPCR DNA constructs were diluted in 10 mM Tris pH 8 to a final concentration of 0.01 μg/μL, arrayed in 96-well plates and stored at −20 °C. For transfection, HEK293 cells were suspended in Opti-MEM (without phenol red) supplemented with 2% fetal bovine serum (Seradigm) and 100 units/mL penicillin–streptomycin (Gibco) at a final concentration of 220,000 cells/mL and dispensed into white 96-well plates at 90 μL/well. Subsequent transfections and screens were carried using an Agilent Bravo Automated Liquid Handling Platform. First, the 96-well HiBiT DNA arrays were diluted 25-fold in Opti-MEM (without serum or phenol red) to a final concentration of 0.0004 μg/μL and 20 μL of the diluted DNAs were transferred into new 96-well plates. Next, promoterless carrier DNA (1 μg/μL) was diluted 25-fold (0.04 μg/μL) and then dispensed into the diluted arrays at 20 μL/well. Following brief mixing, Viafect transfection reagent (Promega) diluted 16-fold into Opti-MEM was dispensed into the plates at 40 μL/well. After mixing by pipetting, plates were incubated for 10 min on the pipetting station deck. The DNA-transfection reagent complexes were then added to plates containing cells. To facilitate the screen, 10 μL of DNA-transfection reagent complexes were added in duplicates to the top 4 and bottom 4 rows, resulting in two identical 48-well arrays per plate. Plates with transfected cells were incubated for 18–20 h at 37 °C/5% CO2. A screen of each tracer across the entire library using two different concentrations requires duplicate plates of transfected cells. Depending on the number of tracers being screened, transfections can be scaled up using the same ratios. The next day, for each tracer, four 20× screening solutions in tracer dilution buffer (Promega) were prepared: two duplicates at final concentration of 20 μM and two duplicates at a final concentration of 2 μM. A competing unmodified compound was added to one of each duplicate at a final concentration of 400 μM. The four resulting solutions were diluted 4-fold in Opti-MEM without serum or phenol red to generate 5× solutions (5 µM and 0.5 µM tracer +/− 100 μM competing compound). To screen the library, a BioTek MultiFlo FX liquid dispenser was used to dispense 22.5 µL of tracer solution to the top 4 rows and 22.5 µL tracer + competing compound solution to the 4 bottom rows. Plates were briefly mixed on an orbital shaker and incubated for 1.5 h at room temperature. […]

Structure (SMILES)	NanoBRET Fold Response (PTGER1, tracer 0.1μM)	NanoBRET Fold Response (PTGER1, tracer 1μM)	other results
O=C(CCc1ccc2n1[B-](F)(F)[N+]1=C(c3ccc[nH]3)C=CC1=C2)NCc1ccc(C(=O)NCCOCCC(=O)N[C@@H]2CC[C@@]3(O)[C@H]4Cc5ccc(O)c6c5[C@@]3(CCN4CC3CC3)[C@H]2O6)cc1 [Naltrexone-3-NB590]	1.01	1.02	–
CCCn1c(=O)c2[nH]c(-c3ccc(OCC(=O)NCCNC(=O)CCOCCNC(=O)c4ccc(CNC(=O)CCc5ccc6n5[B-](F)(F)[N+]5=C(c7ccc[nH]7)C=CC5=C6)cc4)cc3)nc2n(CCC)c1=O [XAC-3-NB590]	1.06	1.16	–
CC(C)N(CC[C@H](c1ccccc1)c1cc(CCNC(=O)c2ccc(CNC(=O)CCc3ccc4n3[B-](F)(F)[N+]3=C(c5ccc[nH]5)C=CC3=C4)cc2)ccc1O)C(C)C [Tolterodine-BZ-NB590]	1.03	1.03	–
COc1ccc2[nH]c(-c3ccc(CNC(=O)CCOCCOCCOCCOCCNC(=O)CCc4ccc5n4[B-](F)(F)[N+]4=C(c6ccc[nH]6)C=CC4=C5)cc3)c(CCNC(C)=O)c2n1 [AzomelatoninICO9-2-NB590]	–	–	NanoBRET Fold Response (0.1μM tracer): 0.77; NanoBRET Fold Response (1μM tracer): 0.95
CN1CCN(C2=Nc3cc(Cl)ccc3N(CC(=O)NCCOCCOCCOCCOCCNC(=O)CCc3ccc4n3[B-](F)(F)[N+]3=C(c5ccc[nH]5)C=CC3=C4)c3ccccc32)CC1 [Clozapine-c-2-NB590]	–	–	NanoBRET Fold Response (PTGER1, 0.1μM tracer): 1.00; NanoBRET Fold Response (PTGER1, 1μM tracer): 0.92
COc1ccccc1N1CCN(CCCCN2C(=O)c3ccc(CNC(=O)CCOCCNC(=O)c4ccc(CNC(=O)CCc5ccc6n5[B-](F)(F)[N+]5=C(c7ccc[nH]7)C=CC5=C6)cc4)cc3C2=O)CC1 [NAN-190-3-NB590]	0.89	1.11	–
Cc1nc2n(c(=O)c1CCN1CCC(c3noc4cc(F)ccc34)CC1)CCCC2OC(=O)NCCOCCOCCOCCOCCNC(=O)CCc1ccc2n1[B-](F)(F)[N+]1=C(c3ccc[nH]3)C=CC1=C2 (centres unmarked) [Risperidone-2-NB590]	1.04	1.07	–
O=C(CCOCCOCCOCCOCCNC(=O)CCc1ccc2n1[B-](F)(F)[N+]1=C(c3ccc[nH]3)C=CC1=C2)NCCCN1CCN(C2=Nc3ccccc3Oc3ccc(Cl)cc32)CC1 [Loxapine-a-2-NB590]	1.09	1.08	–
COc1ccccc1N1CCN(CCCCN2C(=O)c3ccc(CNC(=O)CCOCCOCCOCCOCCNC(=O)CCc4ccc5n4[B-](F)(F)[N+]4=C(c6ccc[nH]6)C=CC4=C5)cc3C2=O)CC1 [NAN-190-2-NB590]	0.93	1.04	–
CC(C)N(CC[C@H](c1ccccc1)c1cc(CCNC(=O)CCOCCOCCOCCOCCNC(=O)CCc2ccc3n2[B-](F)(F)[N+]2=C(c4ccc[nH]4)C=CC2=C3)ccc1O)C(C)C [Tolterodine-2-NB590]	1.00	1.23	–
N#CN=C(NCCCOc1cccc(CN2CCCCC2)c1)NCCNC(=O)CCOCCOCCOCCOCCNC(=O)CCc1ccc2n1[B-](F)(F)[N+]1=C(c3ccc[nH]3)C=CC1=C2 [Aminopotentidine-2-NB590]	0.97	0.95	–
CCOC(=O)c1cc(C#N)c(N2CCC(C(=O)NS(=O)(=O)Cc3ccccc3/C=C/C(=O)NCCNC(=O)CCc3ccc4n3[B-](F)(F)[N+]3=C(c5ccc[nH]5)C=CC3=C4)CC2)nc1C [AZD1283-1-NB590]	–	–	NanoBRET Fold Response (PTGER1, 0.1μM): 1.17; NanoBRET Fold Response (PTGER1, 1μM): 1.14
CN(C)CCC=C1c2ccccc2CCc2ccc(C(=O)NCCNC(=O)CCOCCOCCOCCOCCNC(=O)CCc3ccc4n3[B-](F)(F)[N+]3=C(c5ccc[nH]5)C=CC3=C4)cc21 [Amitriptyline-b-2-NB590]	–	–	NanoBRET Fold Response (tracer at 0.1μM): 1.07; NanoBRET Fold Response (tracer at 1μM): 1.01
O=C(CCc1ccc2n1[B-](F)(F)[N+]1=C(c3ccc[nH]3)C=CC1=C2)NCCOCCOCCNC(=O)OCCOCCN1CCN(C2=Nc3ccccc3Sc3ccccc32)CC1 [Quetiapine-a-2-NB590]	1.07	1.05	–
Cc1cc2c(s1)Nc1ccccc1N=C2N1CCN(CCCNC(=O)CCOCCOCCOCCOCCNC(=O)CCc2ccc3n2[B-](F)(F)[N+]2=C(c4ccc[nH]4)C=CC2=C3)CC1 [Olanzapine-a-2-NB590]	1.03	1.04	–
CN1CCN(C2=Nc3cc(Cl)ccc3Nc3ccc(CNC(=O)CCOCCOCCOCCOCCNC(=O)CCc4ccc5n4[B-](F)(F)[N+]4=C(c6ccc[nH]6)C=CC4=C5)cc32)CC1 [Clozapine-b-2-NB590]	–	–	NanoBRET Fold Response (PTGER1, 0.1μM tracer): 1.01; NanoBRET Fold Response (PTGER1, 1μM tracer): 0.97
COc1ccc2c(n1)c(CCNC(C)=O)cn2CCNC(=O)CCc1ccc2n1[B-](F)(F)[N+]1=C(c3ccc[nH]3)C=CC1=C2 [Azamelatonin-1-NB590]	–	–	NanoBRET Fold Response (0.1μM tracer): 1.20; NanoBRET Fold Response (1μM tracer): 0.95
O=C(CCc1ccc2n1[B-](F)(F)[N+]1=C(c3ccc[nH]3)C=CC1=C2)NCc1ccc(C(=O)NCCOCCOCCNCC(O)COc2cccc3ccccc23)cc1 (centres unmarked) [Propranolol-3-NB590]	–	–	NanoBRET Fold Response (PTGER1, 0.1μM): 1.07; NanoBRET Fold Response (PTGER1, 1μM): 1.06
O=C(CCOCCOCCOCCOCCNC(=O)CCc1ccc2n1[B-](F)(F)[N+]1=C(c3ccc[nH]3)C=CC1=C2)NCCCN1CCN(C2=Nc3cc(Cl)ccc3Nc3ccccc32)CC1 [Clozapine-a-2-NB590]	–	–	NanoBRET Fold Response (PTGER1, 0.1μM tracer): 1.03; NanoBRET Fold Response (PTGER1, 1μM tracer): 1.02
